US4879390A, “Delta-butyrolactams, thereof, processes for the preparation thereof and their medical use” (priority 1984, dated 1989)

Tests used:
[1] = system: serum and liver transaminase (GPT); assay: Effect on serum and liver transaminase (GPT) levels of normal mice; format: in vivo, male Kunming strain mice
Description: (§1) Male Kunming strain mice weighing 18-22 grams were used throughout the experiments. The compounds to be tested were suspended in 5% Tween 80 and given orally by gavage. The vehicle of 5% Tween 80 solution was administered to control mice via the same route. In in vitro experiments, the compounds were dissolved in dimethylformamide and added directly into the incubation mixture.
Two groups of mice were administered the vehicle or 250 mg/kg of Clausenamide once daily for 7 consecutive days, respectively. The serum and liver GPT were determined 24 h after the last dose administration.

[2] = system: hepatic microsomal cytochrome P-450; assay: Induction of hepatic microsomal cytochrome P-450; format: in vivo, male Kunming strain mice
Description: as §1
(§2) The liver microsomal cytochrome P-450 plays a key role in the detoxification of xenobiotics. Mice were administered 250 mg/kg of Clausenamide once daily for 3 days. The control mice received the vehicle. The mice were killed after fasting overnight. Liver microsomes were prepared and microsomal monooxygenases were determined.

Aminopyrine demethylase = assay: Induction of hepatic microsomal enzymes: aminopyrine demethylase; format: in vivo, male Kunming strain mice
Description: as §1, §2

[3] = system: CCl4 hepatotoxicity in mice; assay: Therapeutic effect on CCl4 hepatotoxicity in mice; format: in vivo, male Kunming strain mice
Description: as §1
(§3) The parameters adopted for hepatotoxicity included serum transaminase (SGPT), liver triglycerides, and pathological examination of liver tissues. The liver lesions were scored mainly by the extent of inflammation and necrosis and graded from 0 to 4.
In another experiment, mice were first injected […] of 0.15% CCl4 in vegetable oil every other day for 3 doses. Treatment of the mice with Clausenamide (250 mg/kg daily) started from the second to fifth day after the first injection of CCl4. The determination of SGPT and pathological examination of liver tissues were performed on day 7 of the experiment.

[4] = system: hypoxia tolerance (mouse); assay: Increase of hypoxia tolerance (mouse); format: in vivo, male mice; settings: for surviving/total animals: 30 min before test, 3.5% oxygen, control 9/60
Description: Collectives of male mice (20 g body weight) are placed in a plastic box divided into two chambers (size of the box: 15×28×40 cm corresponding to a volume of 16.8 l per bos). 20 mice are placed in each chamber. The box is perfused with a gas mixture containing 3.5% oxygen and 96.5% nitrogen. The perfusion volume is 4 l/min. The test substance and vehicle are administered orally 30 min before the test.
About 7 min after onset of perfusion with the hypoxic mixture animals die. The experiment is stopped when in the left hand chamber (control collective) three animals only show signs of respiration. The box is opened and the number of animals of the treated group still alive is counted.
The difference between the survived animals in both groups is evaluated using the X^2 test according to Fisher and Yates (1963) (Thomann et al. 1975).

[5] = system: CCl4 hepatotoxicity in mice; assay: Protective action of Clausenamide against CCl4 hepatotoxicity in mice; format: in vivo, male Kunming strain mice; settings: for Liver lipids (X ± SE): control 21.0 ± 4.2; for SGPT (X ± SE): nine mice per group, control 3016 ± 23
Description: as §1, §3
(a) Hepato-protective action
The procedure of experiment of anti-CCl4 hepatotoxicity was the same as described above. The dosages of the active compound used were 125 and 250 mg/kg. […] Liver lipids were not decreased.

mice = assay: Acute toxicity test; format: in vivo; settings: single oral dose of 3 grams/kg, 10 mice
Description: as §1

[6] = Induction of hepatic microsomal cytochrome P-450: liver weight and microsomal protein; format: in vivo, male Kunming strain mice; settings: 250 mg/kg/day × 3; 6 per group; control 4.0 ± 0.2
Description: as §1, §2

retrograde amnesia (rat) = assay: Retrograde amnesia (rat) under hypoxic conditions; format: in vivo, male rats; settings: time to enter dark compartment 24 h after hypoxia
Description: The apparatus (39 cm long, 21 cm high, and 21 cm wide) consists of two compartments, one made of translucent plastic (29 cm long) and the other one painted black (10 cm long). It has a bottom of spaced metal grids which are connected to a stimulating device delivering 1.6 mA for 20 s.
Both compartments are connected via a door which can be closed.
Male rats (100-120 g body weight) will be placed individually in the large compartment and allowed to explore both compartments for 3 min.
Thereafter the animals are placed in the small (dark) compartment, the connecting door is closed and the foot shock is delivered. After that the animals are put in an air-tight cage which is perfused by a gas mixture containing 3.8% oxygen and 96.2 % nitrogen.
24 hours later the rats are placed again in the bright compartment. The observation time is 3 min.
One experiment is performed in three groups of 15 animals each:
Group A: control group, not exposed to hypoxia
Group B: control group, receiving hypoxia after first training
Group C: treated animals, receiving hypoxia after first training.
Evaluation: the times the animals need to enter the dark compartment are measured in seconds.
The time difference between the two control groups is considered to be 100% (A-B=100%).
The time difference between the control group B and the treated group C is calculated in percent (C-B=X%). X is considered to be a measure for the potency of the antiamnestic effect of the substance tested.

[7] = system: acetaminophen hepatotoxicity in mice; assay: Protective action against acetaminophen hepatotoxicity in mice; format: in vivo, male Kunming strain mice; settings: 250 mg/kg × 3
Description: as §1, §3
The experiment of anti-acetaminophen hepatotoxicity was performed in the following way. Mice were administered two doses (250 mg/kg) of Clausenamide on the first day followed by the same dose on the second day. A dose of 150 mg/kg of acetaminophen was injected ip 6 h after the last dose of the compound. SGPT was determined and liver tissues were examined 20 h after acetaminophen injection.

[8] = 250 mg/kg once daily for 3 days

In the case of CN1C(=O)[C@@H](O)[C@H](c2ccccc2)[C@@H]1[C@@H](O)c1ccccc1 (relative stereo) [Clausenamide], the “SGPT level of normal mice, in words” value ([1]; 250 mg/kg once daily for 7 days) is reported as “slightly higher than that of the control, but the difference was not significant”, the “SGPT (X ± SE)” value ([1]; normal mice, 250 mg/kg/day × 7, eight mice per group, control 217 ± 7.5, P > 0.05) is reported as 252 ± 22.1 unit % and the “LGPT (X ± SE)” value ([1]; normal mice, 250 mg/kg/day × 7, eight mice per group, control 260 ± 11.6, P > 0.05) is reported as 292 ± 8.0 unit/100 mg. The “Hepatic cytochrome P-450, in words” value [2, 8] was “increased significantly”, the “Cytochrome P-450” value ([2]; 250 mg/kg/day × 3, 6 per group, control 0.87 ± 0.07) was 1.14 ± 0.07 nmol/mg protein and the “Action on hepatic microsomal cytochrome P-450 (concluded from sleeping time and enzyme data)” value ([2]; 250 mg/kg, biphasic) was “inhibition and followed by induction”. The “Aminopyrine demethylase, in words” value (Aminopyrine demethylase; [8]) was “increased significantly”, the Aminopyrine demethylase (Aminopyrine demethylase; 250 mg/kg/day × 3, 6 per group, control 81 ± 6.3) was 126 ± 5.2 nmol HCHO/min protein and the “SGPT lowering, in words” value ([3]; 250 mg/kg daily, second to fifth day after first CCl4 injection) was “significant SGPT lowering action”. For the same molecule, the “Liver lesions, in words” value ([3]; 250 mg/kg daily, second to fifth day after first CCl4 injection, day 7) was “no effect on liver lesions”, the “SGPT (X ± SE)” value ([3]; 250 mg/kg/day × 4, started after first CCl4 injection, 8 mice, control 2695 ± 110, P <0.01) was 1718 ± 224 unit % and the effect ([4]; 10 mg/kg p.o.) was 19.6%. The surviving/total animals ([4]; 10 mg/kg p.o.) was 19/60, the effect ([4]; 30 mg/kg p.o.) was 41.1% and the surviving/total animals ([4]; 30 mg/kg p.o.) was 31/60. For the same molecule, the effect ([4]; 100 mg/kg p.o.) was 58.8%, the “increase in the survival rate” value ([4]; 100 mg/kg p.o.) was 59% and the surviving/total animals ([4]; 100 mg/kg p.o.) was 40/60. For the same molecule, the “hypoxia tolerance, in words” value ([4]; 10 to 100 mg/kg p.o.) was “significantly increased”, the “Liver lipids (X ± SE)” value ([5]; 125 mg/kg × 2, CCl4) was 21.6 ± 4.4 mg/g liver and the “SGPT (X ± SE)” value ([5]; 125 mg/kg × 2, CCl4, P < 0.05) was 2365 ± 245 unit %. For the same molecule, the “Liver lipids (X ± SE)” value ([5]; 250 mg/kg × 2, CCl4) was 13.4 ± 3.0 mg/g liver, the “Liver lesions: Inflammation grade” value ([5]; 250 mg/kg × 2, CCl4, graded from 0 to 4, control 1.70) was 0.38 grade and the “Liver lesions: Necrosis grade” value ([5]; 250 mg/kg × 2, CCl4, graded from 0 to 4, control 2.33) was 1.33 grade. The “SGPT (X ± SE)” value ([5]; 250 mg/kg × 2, CCl4, p < 0.01) was 1900 ± 257 unit %, the “Liver injuries such as inflammation and necrosis, in words” value ([5]; 250 mg/kg, CCl4) was “less severe than those of the control” and the “Elevation of SGPT induced by CCl4, in words” value ([5]; 125 and 250 mg/kg) was “significantly depressed the elevation of SGPT”. For the same molecule, the “Liver lipids, in words” value ([5]; CCl4) was “not decreased”, the “Death in 7 days” value (mice) was “did not cause death” and the Liver weight [6] was 5.4 ± 0.2 g %. The “X (antiamnestic effect, C-B as percent of A-B)” value (retrograde amnesia (rat); 3 mg/kg p.o.) was 47%, the “X (antiamnestic effect, C-B as percent of A-B)” value (retrograde amnesia (rat); 10 mg/kg p.o.) was 65% and the “X (antiamnestic effect, C-B as percent of A-B)” value (retrograde amnesia (rat); 30 mg/kg p.o.) was 100%. The “Hepatic injuries, in words” value ([7]; acetaminophen 150 mg/kg ip) was “markedly decreased SGPT levels and hepatic injuries”, the “SGPT levels, in words” value ([7]; acetaminophen 150 mg/kg ip) was “markedly decreased SGPT levels” and the Liver lipids ([7]; acetaminophen 150 mg/kg ip, control 79 ± 13) was 82 ± 17 mg/g. The SGPT ([7]; acetaminophen 150 mg/kg ip, nine mice per group, control 2778 ± 270, P < 0.01) was 697 ± 163 unit %, the “Liver inflammation (grade)” value ([7]; acetaminophen, graded from 0 to 4, control 0.5) was 0.1 grade and the “Liver necrosis (grade)” value ([7]; acetaminophen, graded from 0 to 4, control 1.4) was 0 grade.
